Measurements as given in BindingDB's records for doi:10.1021/jm00166a002 (Berlex Laboratories, 1990).

Molecular target: Beta-1 adrenergic receptor (Canis familiaris)
Assay: In vitro Beta-1 adrenergic receptor affinity in partially purified membrane fractions from canine cardiac tissue using […] (4.5 nM)

| SMILES | IC50 |
| --- | --- |
| Cc1nccn1-c1ccc(OCCNCC(O)COc2ccc(N(C)S(C)(=O)=O)cc2)cc1 (configuration not stated) | 18 µM |
| CN(c1ccc(OCC(O)CNCCOc2ccc(-n3ccnc3)cc2)cc1)S(C)(=O)=O (configuration not stated) | 21 µM |
